Assay results published in patent US11725036B2, “Modified lipidated relaxin B chain peptides and their therapeutic use” (Sanofi, priority 2018, dated 2023).
Converted amounts (≈) assume the structure as drawn. Like-named read-outs stand apart in the source and are kept apart here. Starred links: 1 amine or outer side, 2 acyl side, 3 side chain; linkers in the order of their positions; H or OH if unused. Non-standard residues stand in square brackets, D forms with d. Residues, ends and D or L forms follow the SMILES beside them. Groups on a side chain read outwards from the residue. *: point of attachment. X1 = CCCCCCCCCCCCCCCC(=O)N[C@@H](CCC(=O)N[C@@H](CCC(=O)N[C@@H](CCC(=O)NCCCOCCOCCOCCCNC(=O)CCC(=O)NCCCOCCOCCOCCCNC(=O)CCC(=O)NCCCOCCOCCOCCCN*)C(=O)O)C(=O)O)C(=O)O; γGlu = O=C(O)[C@H](CCC(=O)[*:2])N[*:1]; Stearoyl = CCCCCCCCCCCCCCCCCC(=O)*; Suc = O=C(CCC(=O)[*:2])[*:1]; AEEA = NCCOCCOCC(=O)O; Aib = CC(C)(N)C(=O)O

Columns and labels:
[1] = Stability in human plasma; type: in vitro ADME; details: for Human Plasma stability % remaining: T = 0, 37° C., 5 μM
Description: (§1) Prior to the testing of stability in plasma (or blood) of a peptide batch, its purity (HPLC-UV) was determined.
(§2) Rat and Human plasma: anti-coagulant sodium or lithium heparin.
(§3) 100 μM solution of study compound in 50 mM phosphate buffer pH 7.4.
(§4) 950 μL plasma (or blood) was pre-incubated for 5 min at 37° C. 50 μL of compound stock solution was added. Final compound concentration=5 μM. Vortex and transfer 150 μL plasma (or blood) into an Eppendorf for each time point. The time points […] were carried out in duplicate for each species.
(§5) After incubation, 150 μL plasma (or blood) was extracted with 600 μL Acetonitrile containing 1% TFA. Said mixture was then vortexed and centrifuged 10 min at 14600 rpm. 200 μL supernatant was dried under N2. Sample was then reconstituted in 200 μL of H2O/CH3CN 98/2+0.1% FA+50 ng/ml Labetalol and analyzed using the analytical system used in solubility and stability studies.
(§6) For determination of the amount of the remaining peptide, the peak areas of the target compound at t0 and each time point […] were compared, resulting in “% remaining peptide”, following the equation: % remaining peptide=[(peak area peptide time)×100]/peak area peptide t0. The stability was expressed as “% remaining peptide”.

Stability in rat plasma = type: in vitro ADME; details: for Rat plasma stability % remaining: T = 0, 37° C., 5 μM
Description: as §1, §2, §3, §4, §5, §6

RXFP1 = biological target: T1, RXFP1 (Homo sapiens, UniProt Q9HBX9); experiment: OVCAR5 cAMP assay (HTRF); type: cell-based; details: for EC50: OVCAR 5 cells expressing endogenous RXFP1, cAMP readout; for Emax: OVCAR 5 cells, maximal cAMP relative to H2-relaxin
T1 construct: OVCAR5 cells expressing endogenous RXFP1; endogenous in cells; host or cells: OVCAR5
T1 sequence (Q9HBX9 1-757): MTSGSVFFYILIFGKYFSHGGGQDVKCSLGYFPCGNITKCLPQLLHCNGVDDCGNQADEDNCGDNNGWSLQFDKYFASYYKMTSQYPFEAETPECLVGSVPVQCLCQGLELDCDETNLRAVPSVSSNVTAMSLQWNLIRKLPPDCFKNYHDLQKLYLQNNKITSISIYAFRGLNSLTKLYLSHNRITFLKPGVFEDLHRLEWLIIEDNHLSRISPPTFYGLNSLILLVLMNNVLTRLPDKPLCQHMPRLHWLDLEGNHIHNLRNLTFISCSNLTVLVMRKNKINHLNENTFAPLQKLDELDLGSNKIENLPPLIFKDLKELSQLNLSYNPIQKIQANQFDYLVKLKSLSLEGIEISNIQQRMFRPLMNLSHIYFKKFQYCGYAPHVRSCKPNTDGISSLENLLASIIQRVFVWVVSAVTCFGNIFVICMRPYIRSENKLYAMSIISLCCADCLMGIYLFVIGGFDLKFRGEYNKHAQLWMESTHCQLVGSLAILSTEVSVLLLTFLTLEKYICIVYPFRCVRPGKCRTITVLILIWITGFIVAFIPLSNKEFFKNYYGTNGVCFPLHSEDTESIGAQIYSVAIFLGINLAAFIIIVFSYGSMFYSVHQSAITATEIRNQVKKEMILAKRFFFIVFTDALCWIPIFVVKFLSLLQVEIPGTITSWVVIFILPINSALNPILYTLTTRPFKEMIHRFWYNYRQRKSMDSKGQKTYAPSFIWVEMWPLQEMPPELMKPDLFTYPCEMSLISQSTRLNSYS
Method in brief: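 Endogenous RXFP1 in OVCAR5 cells, pretreated 40 min at 37° C with 1 mM IBMX, then exposed to increasing peptide concentrations in serum-free medium for 30 min at 37° C. cAMP read by HTRF; EC50 by variable-slope sigmoidal fit, Emax as % of H2-relaxin maximal cAMP in same run.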

[2] = Solubility testing in buffer; type: physicochemical; details: target solubility 10.0 mg/ml
[3] = phosphate buffer 50 mM pH 7.4, read-out: Solubility phosphate buffer pH 7.4

Human Plasma stability % remaining [1] | Rat plasma stability % remaining (Stability in rat plasma) | EC50 (RXFP1) | Emax (RXFP1) | solubility [2, 3] | remaining at 1 h, 5 μM ([1]; human, plasma (sodium or lithium heparin), 1 h, 37° C.) | remaining at 4 h, 5 μM ([1]; human, plasma (sodium or lithium heparin), 4 h, 37° C.) | remaining at 1 h, 5 μM (Stability in rat plasma; rat, plasma (sodium or lithium heparin), 1 h, 37° C.) | solubility ([2]; acetate buffer 50 mM pH 4.5, read-out: Solubility Acetate buffer pH 4.5) | Molecule
100% | 100% |  |  |  |  |  |  |  | Ac-VIKLSGRELVRAQIAISGMSTWSKKKK-NH2 [KKKK(AcB7-29 C11.23S), reference compound]
100% | 100% |  |  |  |  |  |  |  | H-VIKLSGRELVRAQIAISGMSTWSKRSL-NH2 [B7-33 C11.23S, reference compound]
100% | 89% | 2.12 nM | 91% | 7680 µg/mL (≈ 1770 µM) | 91% | 89% | 100% |  | CCCCCCCCCCCCCCCC(=O)N[C@@H](CCC(=O)N[C@@H](CCC(=O)N[C@@H](CCC(=O)NCCCOCCOCCOCCCNC(=O)CCC(=O)NCCCOCCOCCOCCCNC(=O)CCC(=O)NCCCOCCOCCOCCCNC(=O)CCC(=O)NCCCC[C@H](NC(=O)CNC(=O)[C@H](CCC(=O)O)NC(=O)C(C)(C)NC(=O)C(C)(C)NC(=O)[C@@H](NC(=O)[C@H](CCCCNC(C)=O)NC(=O)[C@H](C)NC(=O)[C@H](CCCNC(=N)N)NC(=O)[C@@H](NC(=O)[C@H](CCCCN)NC(=O)[C@H](CCC(=O)O)NC(=O)[C@H](CCCNC(=N)N)NC(=O)CNC(=O)[C@H](CCC(=O)O)NC(=O)[C@H](CC(C)C)NC(C)=O)C(C)C)[C@@H](C)CC)C(=O)N[C@@H](CO)C(=O)N[C@H](C(=O)N[C@@H](Cc1ccccc1)C(=O)N[C@@H](CO)C(=O)N[C@@H](CCCCN)C(=O)N[C@@H](CCCNC(=N)N)C(=O)N[C@@H](C)C(=O)N[C@@H](CCCCNC(C)=O)C(N)=O)[C@@H](C)O)C(=O)O)C(=O)O)C(=O)O [compound 13] (Ac-LEGREKVRAK(Ac)I[Aib][Aib]EGK([Suc-X1])STFSKRAK(Ac)-NH2)
 |  | 0.65 nM | 93% | 6590 µg/mL (≈ 1610 µM) |  |  |  | 6280 µg/mL (≈ 1530 µM) | CCCCCCCCCCCCCCCCCC(=O)N[C@@H](CCC(=O)N[C@@H](CCC(=O)N[C@@H](CCC(=O)NCCOCCOCC(=O)NCCOCCOCC(=O)NCCOCCOCC(=O)NCCOCCOCC(=O)NCCCC[C@H](NC(=O)CNC(=O)[C@H](CCC(=O)O)NC(=O)C(C)(C)NC(=O)C(C)(C)NC(=O)[C@@H](NC(=O)[C@H](CCCCNC(C)=O)NC(=O)[C@H](C)NC(=O)[C@H](CCCNC(=N)N)NC(=O)[C@@H](NC(=O)[C@H](CCCCN)NC(=O)[C@H](CCC(=O)O)NC(=O)[C@H](CCCNC(=N)N)NC(=O)CNC(=O)[C@H](CCC(=O)O)NC(=O)[C@H](CC(C)C)NC(C)=O)C(C)C)[C@@H](C)CC)C(=O)N[C@@H](CO)C(=O)N[C@H](C(=O)N[C@@H](Cc1c[nH]c2ccccc12)C(=O)N[C@@H](CO)C(=O)NC(C)(C)C(=O)N[C@@H](CCCNC(=N)N)C(=O)N[C@@H](CCCCN)C(=O)N[C@@H](CCCCNC(C)=O)C(N)=O)[C@@H](C)O)C(=O)O)C(=O)O)C(=O)O [compound 21] (Ac-LEGREKVRAK(Ac)I[Aib][Aib]EGK([AEEA-AEEA-AEEA-AEEA-γGlu-γGlu-γGlu-Stearoyl])STWS[Aib]RKK(Ac)-NH2)
